In ChEMBL document CHEMBL4325890, “Novel tyrosyl-DNA phosphodiesterase 1 inhibitors enhance the therapeutic impact of topoteсan on in vivo tumor models” (Eur J Med Chem, 2019):

Experiments:
[1] = Toxicity in C57BL/6 mouse implanted with C57BL mouse LLC cells assessed as change in body weight at 100 mg/kg, ig administered as single dose in presence of topotecan (reference value: 90%); assay type: organism-based; conditions: in vivo, po
[2] = tested on: Lewis lung carcinoma cell line; assay: Potentiation of topotecan-induced anticancer activity against C57BL mouse LLC cells implanted in C57BL/6 mouse assessed as tumor weight at 100 mg/kg, ig administered as single dose measured 17 days post transplantation (reference value: 2.9 +/- 0.28 g); assay type: functional
[3] = Cytotoxicity against mouse LLTC cells after 3 days by [3H]-thymidine incorporation assay; assay type: cell-based
[4] = Toxicity in C57BL/6 mouse implanted with C57BL mouse LLC cells assessed as change in body weight at 100 mg/kg, ig administered as single dose (reference value: 90%); assay type: organism-based; conditions: in vivo, po
[5] = Toxicity in C57BL/6 mouse implanted with C57BL mouse LLC cells assessed as state and behavioral changes at 100 mg/kg, ig administered as single dose in presence of topotecan; assay type: organism-based; conditions: in vivo, po
[6] = Toxicity in C57BL/6 mouse implanted with C57BL mouse LLC cells assessed as death at 100 mg/kg, ig; assay type: organism-based; conditions: in vivo, po
[7] = Toxicity in C57BL/6 mouse implanted with C57BL mouse LLC cells assessed as spleen weight at 100 mg/kg, ig administered as single dose measured 17 days post-transplantation (reference value: 252 +/- 12 mg); assay type: organism-based; conditions: in vivo, po, 408 h
[8] = Toxicity in C57BL/6 mouse implanted with C57BL mouse LLC cells assessed as death at 100 mg/kg, ig in presence of topotecan; assay type: organism-based; conditions: in vivo, po
[9] = tested on: Lewis lung carcinoma cell line; assay: Cytotoxicity against C57BL mouse LLC cells implanted in C57BL/6 mouse assessed as effect on number of metastatic nodules in lung at 100 mg/kg, ig administered as single dose measured 17 days post transplantation by microscopic analysis; assay type: organism-based; conditions: in vivo, po, 408 h
[10] = Toxicity in C57BL/6 mouse implanted with C57BL mouse LLC cells assessed as liver index at 100 mg/kg, ig administered as single dose measured 17 days post-transplantation (reference value: 5.8 +/- 0.38%); assay type: organism-based; conditions: in vivo, po, 408 h
[11] = tested on: Lewis lung carcinoma cell line; assay: Cytotoxicity against C57BL mouse LLC cells implanted in C57BL/6 mouse assessed as tumor weight at 100 mg/kg, ig administered as single dose measured 17 days post transplantation (reference value: 3.3 +/- 0.28 g); assay type: organism-based; conditions: in vivo, po, 408 h
[12] = biological target: T1, Tyrosyl-DNA phosphodiesterase 1 (Homo sapiens, UniProt Q9NUW8); assay: Binding affinity to recombinant human Tdp1 (149 to 608 residues) expressed in Escherichia coli BL21 (DE3) by tryptophan fluorescence quenching assay
[13] = Toxicity in C57BL/6 mouse implanted with C57BL mouse LLC cells assessed as liver index at 100 mg/kg, ig administered as single dose measured 17 days post-transplantation in presence of topotecan (reference value: 5.8 +/- 0.38%); assay type: organism-based; conditions: in vivo, po, 408 h
[14] = Acute toxicity in ig dosed specific pathogen free CD-1 mouse; assay type: organism-based; conditions: in vivo, po
[15] = Toxicity in C57BL/6 mouse implanted with C57BL mouse LLC cells assessed as spleen weight at 100 mg/kg, ig administered as single dose measured 17 days post-transplantation in presence of topotecan (reference value: 252 +/- 12 mg); assay type: organism-based; conditions: in vivo, po, 408 h
[16] = Toxicity in C57BL/6 mouse implanted with C57BL mouse LLC cells assessed as state and behavioral changes at 100 mg/kg, ig administered as single dose; assay type: organism-based; conditions: in vivo, po
[17] = Cytotoxicity against human MCF7 cells after 3 days by [3H]-thymidine incorporation assay; assay type: cell-based
[18] = Stability of the compound assessed as imine hydrolysis at pH 1 HCl solution incubated for 24 hrs under shaking condition; assay type: physicochemical; conditions: buffer, pH 1, 24 h
[19] = biological target: T1, Tyrosyl-DNA phosphodiesterase 1
[20] = biological target: T1, Tyrosyl-DNA phosphodiesterase 1; assay: Inhibition of Tdp1 (unknown origin)
[21] = Oral bioavailability in rabbit at 20 mg/kg by HPLC analysis; assay type: ADME, organism-based, Oryctolagus cuniculus; conditions: in vivo
[22] = Toxicity in C57BL/6 mouse implanted with C57BL mouse LLC cells assessed as death at 1.5 mg/kg, ip administered on day 4, 5, 7 and 9 post-transplantation; assay type: organism-based; conditions: in vivo
[23] = Toxicity in C57BL/6 mouse implanted with C57BL mouse LLC cells assessed as change in body weight at 1.5 mg/kg, ip administered on day 4, 5, 7 and 9 post-transplantation (reference value: 90%); assay type: organism-based; conditions: in vivo
[24] = Toxicity in C57BL/6 mouse implanted with C57BL mouse LLC cells assessed as liver index at 1.5 mg/kg, ip administered on day 4, 5, 7 and 9 post-transplantation measured 17 days post-transplantation (reference value: 5.8 +/- 0.38%); assay type: organism-based; conditions: in vivo, 408 h
[25] = Toxicity in C57BL/6 mouse implanted with C57BL mouse LLC cells assessed as spleen weight at 1.5 mg/kg, ip administered on day 4, 5, 7 and 9 post-transplantation measured 17 days post-transplantation (reference value: 252 +/- 12 mg); assay type: organism-based; conditions: in vivo, 408 h
[26] = Toxicity in C57BL/6 mouse implanted with C57BL mouse LLC cells assessed as state and behavioral changes at 1.5 mg/kg, ip administered on day 4, 5, 7 and 9 post-transplantation; assay type: organism-based; conditions: in vivo
[27] = biological target: T1, Tyrosyl-DNA phosphodiesterase 1; remark: listed apart in the source

T1 sequence (Q9NUW8 whole entry, the tested form may be a part): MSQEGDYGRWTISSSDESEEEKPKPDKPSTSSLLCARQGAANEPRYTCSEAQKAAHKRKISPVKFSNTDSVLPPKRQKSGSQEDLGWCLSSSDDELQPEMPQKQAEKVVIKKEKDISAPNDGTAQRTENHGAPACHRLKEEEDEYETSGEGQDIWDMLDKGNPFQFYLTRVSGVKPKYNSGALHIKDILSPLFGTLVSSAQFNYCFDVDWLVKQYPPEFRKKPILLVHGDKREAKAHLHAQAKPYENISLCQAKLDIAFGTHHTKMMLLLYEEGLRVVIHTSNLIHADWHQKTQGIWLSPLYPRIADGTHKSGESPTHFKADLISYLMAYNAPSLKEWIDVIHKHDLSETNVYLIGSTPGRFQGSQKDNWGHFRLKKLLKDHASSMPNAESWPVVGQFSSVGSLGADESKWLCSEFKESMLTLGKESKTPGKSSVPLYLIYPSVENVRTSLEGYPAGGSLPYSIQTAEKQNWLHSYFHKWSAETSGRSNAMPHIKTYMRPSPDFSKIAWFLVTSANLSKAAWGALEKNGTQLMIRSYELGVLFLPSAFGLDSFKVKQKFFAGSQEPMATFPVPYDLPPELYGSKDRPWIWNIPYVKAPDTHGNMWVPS

Work on `CC(=O)C1=C(O)C=C2Oc3c(-c4csc(N/N=C/c5ccc(Br)cc5)n4)c(O)c(C)c(O)c3[C@@]2(C)C1=O` yielded an Activity [1] of 89.7%, an Activity [2] of 1.4 g and a CC50 at 72 h [3] of 1670 nM. For the same molecule, the Activity [4] was 88.2%, the Activity [5] was “Non-Toxic” and the Activity [6] was “Non-Toxic”. For the same molecule, the Activity [7] was 281 mg, the Activity [8] was “Non-Toxic” and the Activity [9] was “Non-Toxic”. The Activity [10] was 6%, the Activity [11] was 3.3 g and the Kd [12] was 7020 nM. It also gave an Activity [13] of 6.5%, an LD50 [14] of over 5000 mg/kg and an Activity [15] of 326 mg. The Activity [16] was “Non-Toxic”, the CC50 at 72 h [17] was 1690 nM and the Stability [18] was “Stable”.
For `CC(=O)C1=C(O)C=C2Oc3c(-c4csc(N/N=C/c5ccc([N+](=O)[O-])cc5)n4)c(O)c(C)c(O)c3[C@@]2(C)C1=O`, the IC50 [19] was 35 nM, the Kd [12] was 10700 nM and the Stability [18] was “Stable”.
Work on `CC(=O)C1=C(O)C=C2Oc3c(C(=O)CSC#N)c(O)c(C)c(O)c3[C@@]2(C)C1=O` yielded an IC50 [20] of 1010 nM.
`CC(=O)C1=C(O)C=C2Oc3c(C(C)=O)c(O)c(C)c(O)c3[C@@]2(C)C1=O` [(+)-USNIC ACID] gave an IC50 [19] of over 50000 nM.
With `CC(=O)c1c([O-])c(C)c([O-])c2c1OC1=CC(=O)C(C(C)=O)C(=O)[C@@]12C.[Na+].[Na+]` (stereo not given in full) the bioavailability [21] was 78%.
For `COc1ccc(/C=N/Nc2nc(-c3c(O)c(C)c(O)c4c3OC3=CC(O)=C(C(C)=O)C(=O)[C@@]34C)cs2)cc1`, the IC50 [19] was 158 nM, the Kd [12] was 8650 nM and the Stability [18] was “Stable”.
For `CC(=O)C1=C(O)C=C2Oc3c(-c4csc(N/N=C/c5ccc(F)cc5)n4)c(O)c(C)c(O)c3[C@@]2(C)C1=O`, the IC50 [19] was 150 nM, the Kd [12] was 35200 nM and the Stability [18] was “Stable”.
`CC(=O)C1=C(O)C=C2Oc3c(-c4csc(C)n4)c(O)c(C)c(O)c3[C@@]2(C)C1=O` showed an IC50 [19] of 4100 nM.
For `CC[C@@]1(O)C(=O)OCc2c1cc1n(c2=O)Cc2cc3c(CN(C)C)c(O)ccc3nc2-1` [TOPOTECAN], the Activity [22] was “Non-Toxic”, the Activity [23] was 88.1% and the Activity [24] was 5.8%. For the same molecule, the Activity [25] was 260 mg and the Activity [26] was “Non-Toxic”.
Work on `CNc1nc(-c2c(O)c(C)c(O)c3c2OC2=CC(O)=C(C(C)=O)C(=O)[C@@]23C)cs1` yielded an IC50 [19] of 5900 nM.
Work on `CC(=O)C1=C(O)C=C2Oc3c(-c4csc(-c5ccccc5)n4)c(O)c(C)c(O)c3[C@@]2(C)C1=O` yielded an IC50 [19] of 1120 nM.
Molecule `Cc1ccc(C)n1-c1ccc(Cl)c(C(=O)O)c1` has an IC50 [20] of 110 nM.
Work on `COc1cc(/C=C2\SC(=S)N(c3ccc([N+](=O)[O-])cc3)C2=O)cc(Br)c1O` yielded an IC50 [27] of 1080 nM.
Molecule `CC(C)=CCCC(C)CCNC1C2CC3CC(C2)CC1C3` (stereo not given) has an IC50 [19] of 3500 nM.
For `CC(=O)C1=C(O)C=C2Oc3c(-c4csc(N/N=C/c5ccccc5)n4)c(O)c(C)c(O)c3[C@@]2(C)C1=O`, the IC50 [19] was 172 nM, the Kd [12] was 7140 nM and the Stability [18] was “Stable”.
In the case of `CC(=O)C1=C(O)C=C2Oc3c(-c4csc(N/N=C/c5ccc(Cl)cc5)n4)c(O)c(C)c(O)c3[C@@]2(C)C1=O`, the IC50 [19] is reported as 68 nM, the Kd [12] is reported as 9460 nM and the Stability [18] is reported as “Stable”.
`CC(=O)C1=C(O)C=C2Oc3c(-c4csc(-c5cccnc5)n4)c(O)c(C)c(O)c3[C@@]2(C)C1=O` showed an IC50 [19] of 1210 nM.
For `COc1cc(/C=N/Nc2nc(-c3c(O)c(C)c(O)c4c3OC3=CC(O)=C(C(C)=O)C(=O)[C@@]34C)cs2)ccc1O`, the IC50 [19] was 192 nM, the Kd [12] was 44600 nM and the Stability [18] was “Stable”.
In the case of `CC(=O)C1=C(O)C=C2Oc3c(-c4csc(Nc5ccccc5)n4)c(O)c(C)c(O)c3[C@@]2(C)C1=O`, the IC50 [19] is reported as 610 nM.
Molecule `C=CCNc1nc(-c2c(O)c(C)c(O)c3c2OC2=CC(O)=C(C(C)=O)C(=O)[C@@]23C)cs1` has an IC50 [19] of 1250 nM.
For `CC(=O)C1=C(O)C=C2Oc3c(-c4csc(N/N=C/c5ccc(O)cc5)n4)c(O)c(C)c(O)c3[C@@]2(C)C1=O`, the IC50 [19] was 457 nM, the Kd [12] was 31100 nM and the Stability [18] was “Stable”.
In the case of `CC(=O)C1=C(O)C=C2Oc3c(-c4csc(N)n4)c(O)c(C)c(O)c3[C@@]2(C)C1=O`, the IC50 [19] is reported as 3800 nM.
For `CC(=O)C1=C(O)C=C2Oc3c(-c4csc(N/N=C/c5cccc([N+](=O)[O-])c5)n4)c(O)c(C)c(O)c3[C@@]2(C)C1=O`, the IC50 [19] was 86 nM, the Kd [12] was 6200 nM and the Stability [18] was “Stable”.
